Among the data in ChEMBL document CHEMBL3991601, “The target landscape of clinical kinase drugs” (Science, 2017) are Kd values, retold here.

Test [1] concerns the target Mitogen-activated protein kinase kinase kinase kinase 1 (Homo sapiens, UniProt Q92918).
Test [2] deals with Ribosomal protein S6 kinase alpha-3 (Homo sapiens, UniProt P51812).
In test [3] the target is T1, Serine/threonine-protein kinase Nek3 (Homo sapiens, UniProt P51956).
T1 sequence (P51956 whole entry): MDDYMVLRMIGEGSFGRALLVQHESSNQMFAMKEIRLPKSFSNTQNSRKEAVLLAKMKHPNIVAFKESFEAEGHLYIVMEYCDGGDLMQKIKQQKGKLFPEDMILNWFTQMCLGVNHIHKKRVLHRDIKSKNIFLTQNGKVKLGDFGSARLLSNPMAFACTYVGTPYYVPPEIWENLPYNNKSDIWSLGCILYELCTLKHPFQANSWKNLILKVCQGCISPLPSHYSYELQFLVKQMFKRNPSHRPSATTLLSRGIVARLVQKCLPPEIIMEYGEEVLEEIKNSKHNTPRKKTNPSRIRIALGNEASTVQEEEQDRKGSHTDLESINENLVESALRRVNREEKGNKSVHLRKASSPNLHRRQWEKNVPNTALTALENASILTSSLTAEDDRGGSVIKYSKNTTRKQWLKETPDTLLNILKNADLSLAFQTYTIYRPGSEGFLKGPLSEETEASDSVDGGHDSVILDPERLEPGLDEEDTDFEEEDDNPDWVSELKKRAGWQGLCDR

Test [4] deals with T2, Bone morphogenetic protein receptor type-2 (Homo sapiens, UniProt Q13873).
T2 sequence (Q13873 whole entry): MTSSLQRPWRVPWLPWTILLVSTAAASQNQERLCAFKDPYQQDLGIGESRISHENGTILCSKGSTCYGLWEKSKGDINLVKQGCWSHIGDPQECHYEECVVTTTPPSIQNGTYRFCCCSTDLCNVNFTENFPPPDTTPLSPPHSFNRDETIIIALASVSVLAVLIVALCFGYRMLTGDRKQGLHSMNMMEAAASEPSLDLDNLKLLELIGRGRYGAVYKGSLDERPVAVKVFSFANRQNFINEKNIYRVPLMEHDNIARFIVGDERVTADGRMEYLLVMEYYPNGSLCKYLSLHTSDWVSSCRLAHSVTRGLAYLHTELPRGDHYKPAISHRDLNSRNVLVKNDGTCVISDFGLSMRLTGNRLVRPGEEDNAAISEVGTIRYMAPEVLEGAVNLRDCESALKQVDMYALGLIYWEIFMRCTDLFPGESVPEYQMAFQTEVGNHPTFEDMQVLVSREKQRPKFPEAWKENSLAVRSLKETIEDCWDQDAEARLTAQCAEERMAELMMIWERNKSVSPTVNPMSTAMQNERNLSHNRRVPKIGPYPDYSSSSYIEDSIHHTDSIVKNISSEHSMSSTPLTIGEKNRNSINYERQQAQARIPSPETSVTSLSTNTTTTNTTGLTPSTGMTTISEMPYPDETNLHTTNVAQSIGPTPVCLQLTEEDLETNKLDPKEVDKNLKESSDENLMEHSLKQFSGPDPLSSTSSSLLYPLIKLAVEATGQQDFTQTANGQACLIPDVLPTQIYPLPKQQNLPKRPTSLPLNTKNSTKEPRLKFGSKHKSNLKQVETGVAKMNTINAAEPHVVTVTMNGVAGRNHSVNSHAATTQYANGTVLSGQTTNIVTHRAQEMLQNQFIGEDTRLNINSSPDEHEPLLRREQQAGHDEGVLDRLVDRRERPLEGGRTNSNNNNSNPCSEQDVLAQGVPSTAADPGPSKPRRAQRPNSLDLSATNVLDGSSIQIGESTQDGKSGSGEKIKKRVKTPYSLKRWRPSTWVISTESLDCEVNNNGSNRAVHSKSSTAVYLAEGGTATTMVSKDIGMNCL

For test [5], the target named is T3, Serine/threonine-protein kinase 4 (Homo sapiens, UniProt Q13043).
T3 sequence (Q13043 whole entry): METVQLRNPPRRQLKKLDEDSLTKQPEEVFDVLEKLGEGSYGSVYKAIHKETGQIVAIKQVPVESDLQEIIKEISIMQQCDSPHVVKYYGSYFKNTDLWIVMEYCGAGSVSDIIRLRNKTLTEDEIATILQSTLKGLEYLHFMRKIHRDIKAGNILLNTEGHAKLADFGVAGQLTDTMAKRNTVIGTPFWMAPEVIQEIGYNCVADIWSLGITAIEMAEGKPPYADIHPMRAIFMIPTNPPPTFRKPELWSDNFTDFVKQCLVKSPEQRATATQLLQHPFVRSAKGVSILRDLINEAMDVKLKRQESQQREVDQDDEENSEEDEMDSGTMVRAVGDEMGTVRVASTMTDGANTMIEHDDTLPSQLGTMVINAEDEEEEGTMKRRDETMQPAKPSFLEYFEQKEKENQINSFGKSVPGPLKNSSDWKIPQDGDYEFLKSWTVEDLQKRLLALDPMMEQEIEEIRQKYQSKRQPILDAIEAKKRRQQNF

In test [6] the target is Fibroblast growth factor receptor 1 (Homo sapiens, UniProt P11362).

Activity calls are given as the source filed them. No stated cut-off is given here; in the data, actives have a measured Kd and inactives only a lower limit. A value given as a limit tells only on which side of the number the result lay.

Mitogen-activated protein kinase kinase kinase kinase 1, sequence (Q92918 whole entry): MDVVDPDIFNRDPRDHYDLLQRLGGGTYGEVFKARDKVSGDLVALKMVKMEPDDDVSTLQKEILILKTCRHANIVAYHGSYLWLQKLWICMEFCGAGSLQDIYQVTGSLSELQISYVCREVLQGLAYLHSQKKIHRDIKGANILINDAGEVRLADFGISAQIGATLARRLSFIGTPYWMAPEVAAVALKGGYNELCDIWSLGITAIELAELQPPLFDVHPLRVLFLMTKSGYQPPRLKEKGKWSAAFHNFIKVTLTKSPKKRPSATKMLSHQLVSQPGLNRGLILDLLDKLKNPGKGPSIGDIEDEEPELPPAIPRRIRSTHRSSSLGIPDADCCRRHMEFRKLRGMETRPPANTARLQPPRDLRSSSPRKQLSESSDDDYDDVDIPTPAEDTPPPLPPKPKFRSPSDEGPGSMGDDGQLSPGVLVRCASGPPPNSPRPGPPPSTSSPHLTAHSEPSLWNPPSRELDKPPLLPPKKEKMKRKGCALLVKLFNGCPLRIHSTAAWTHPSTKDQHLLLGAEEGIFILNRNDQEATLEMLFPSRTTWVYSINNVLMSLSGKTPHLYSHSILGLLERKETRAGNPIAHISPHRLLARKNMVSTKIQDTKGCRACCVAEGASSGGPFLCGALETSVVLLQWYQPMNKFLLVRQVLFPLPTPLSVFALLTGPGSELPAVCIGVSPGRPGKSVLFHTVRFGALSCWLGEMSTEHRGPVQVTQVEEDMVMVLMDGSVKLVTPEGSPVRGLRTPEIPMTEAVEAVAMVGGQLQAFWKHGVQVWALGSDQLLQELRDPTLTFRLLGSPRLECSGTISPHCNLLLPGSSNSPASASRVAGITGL
Fibroblast growth factor receptor 1, sequence (P11362 whole entry): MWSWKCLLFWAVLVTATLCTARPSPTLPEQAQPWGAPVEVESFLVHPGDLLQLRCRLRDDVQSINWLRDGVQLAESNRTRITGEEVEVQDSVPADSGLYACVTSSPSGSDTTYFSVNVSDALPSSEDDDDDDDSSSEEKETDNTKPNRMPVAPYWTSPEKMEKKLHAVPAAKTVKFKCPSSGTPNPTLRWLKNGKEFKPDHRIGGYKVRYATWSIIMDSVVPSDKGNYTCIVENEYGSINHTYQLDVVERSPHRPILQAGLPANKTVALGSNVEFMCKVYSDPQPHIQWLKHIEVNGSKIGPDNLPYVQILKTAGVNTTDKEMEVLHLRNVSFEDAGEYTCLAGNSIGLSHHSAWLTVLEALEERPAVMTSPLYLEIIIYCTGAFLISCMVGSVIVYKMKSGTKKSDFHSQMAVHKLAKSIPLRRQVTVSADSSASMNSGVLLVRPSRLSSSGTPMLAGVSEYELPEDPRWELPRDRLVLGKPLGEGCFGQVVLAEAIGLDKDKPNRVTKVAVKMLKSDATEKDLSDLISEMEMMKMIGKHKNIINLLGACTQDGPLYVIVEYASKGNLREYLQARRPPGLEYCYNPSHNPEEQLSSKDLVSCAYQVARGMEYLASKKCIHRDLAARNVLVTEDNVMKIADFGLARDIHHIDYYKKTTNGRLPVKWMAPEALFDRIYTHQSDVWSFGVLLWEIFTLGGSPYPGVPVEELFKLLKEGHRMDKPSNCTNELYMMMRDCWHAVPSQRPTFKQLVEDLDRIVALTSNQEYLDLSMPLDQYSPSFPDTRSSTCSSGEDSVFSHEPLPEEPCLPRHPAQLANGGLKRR
Ribosomal protein S6 kinase alpha-3, sequence (P51812 whole entry): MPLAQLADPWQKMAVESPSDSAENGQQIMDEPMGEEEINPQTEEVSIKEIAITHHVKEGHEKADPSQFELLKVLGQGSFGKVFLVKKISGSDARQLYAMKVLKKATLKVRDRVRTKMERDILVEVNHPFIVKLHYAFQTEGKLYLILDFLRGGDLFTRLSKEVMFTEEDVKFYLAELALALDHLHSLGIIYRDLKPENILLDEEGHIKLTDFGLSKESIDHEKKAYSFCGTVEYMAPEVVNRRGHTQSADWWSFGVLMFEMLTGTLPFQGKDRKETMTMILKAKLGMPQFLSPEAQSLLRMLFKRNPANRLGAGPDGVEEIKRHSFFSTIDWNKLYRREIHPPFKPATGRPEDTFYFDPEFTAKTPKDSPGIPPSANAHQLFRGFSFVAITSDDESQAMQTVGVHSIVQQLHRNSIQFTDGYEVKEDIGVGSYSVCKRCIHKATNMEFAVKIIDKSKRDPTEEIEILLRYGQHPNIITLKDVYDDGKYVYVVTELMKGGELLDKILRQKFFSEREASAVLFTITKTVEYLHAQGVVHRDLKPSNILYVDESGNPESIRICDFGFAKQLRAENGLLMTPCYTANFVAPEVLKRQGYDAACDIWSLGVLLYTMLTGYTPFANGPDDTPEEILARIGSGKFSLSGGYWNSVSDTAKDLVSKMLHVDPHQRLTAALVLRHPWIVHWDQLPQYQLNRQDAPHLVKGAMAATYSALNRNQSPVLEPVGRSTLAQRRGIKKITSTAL

As a reminder, the Kd is the concentration at which binding is half-saturated. For the compound `CC[C@H](Nc1ncnc2[nH]cnc12)c1nc2cccc(F)c2c(=O)n1-c1ccccc1` [IDELALISIB], the Kd in test [1], in test [2], in test [3], in test [4], in test [5] and in test [6] was > 30 µM (inactive) in each case.
Turning to `COC(=O)N[C@@H](C)CNc1nccc(-c2cn(C(C)C)nc2-c2cc(Cl)cc(NS(C)(=O)=O)c2F)n1` [ENCORAFENIB], the Kd in test [1], in test [2], in test [3], in test [4], in test [5] and in test [6] was > 30 µM (inactive) in each case.
For the compound `O=c1sn(-c2cccc3ccccc23)c(=O)n1Cc1ccccc1` [TIDEGLUSIB], the Kd in test [1], in test [2], in test [3], in test [4], in test [5] and in test [6] was > 30 µM (inactive) in each case.
For `COC(=O)[C@@]1(O)C[C@H]2O[C@]1(C)n1c3ccccc3c3c4c(c5c6ccccc6n2c5c31)C(=O)NC4` [K-252A], the Kd in test [1] is 0.452 µM (active); in test [2] it was 2.99 µM (active); in test [3] it was > 30 µM (inactive); in test [4], > 30 µM (inactive); in test [5], 0.029 µM (active); in test [6], > 30 µM (inactive).
In the case of `O=C(c1ccc(F)c(F)c1Nc1ccc(I)cc1F)N1CC(O)([C@@H]2CCCCN2)C1` [COBIMETINIB], the Kd in test [1], in test [2], in test [3], in test [4], in test [5] and in test [6] was > 30 µM (inactive) throughout.
Take `C1=C/COCc2cc(ccc2OCCN2CCCC2)Nc2nccc(n2)-c2cccc(c2)COC/1` [PACRITINIB]: the Kd in test [1] is 0.16 µM; in test [2], > 30 µM (inactive); in test [3] it was > 30 µM (inactive); in test [4] it was > 30 µM (inactive); in test [5], > 30 µM (inactive); in test [6], > 30 µM (inactive).
Take `Cc1ccc(S(=O)(=O)Nc2nc3ccccc3nc2Nc2ccc3nsnc3c2)cc1`: the Kd in test [1], in test [2], in test [3], in test [4], in test [5] and in test [6] was > 30 µM (inactive) in each case.
For `Cn1cc(-c2ccc(F)c(C(F)(F)F)c2)nc1C1CCN(c2ncnc3[nH]ncc23)CC1` [LY-2584702], the Kd in test [1], in test [2], in test [3], in test [4], in test [5] and in test [6] was > 30 µM (inactive) throughout.
`CN(C)C(=O)c1cc2cnc(Nc3ccc(N4CCNCC4)cn3)nc2n1C1CCCC1` [RIBOCICLIB]: the Kd in test [1], in test [2], in test [3], in test [4], in test [5] and in test [6] was > 30 µM (inactive) in each case.
Consider `O=C(Nc1ccc(-c2ccnc(Nc3ccc(N4CCOCC4)cc3)n2)cc1)C1CCCN1` (stereo unspecified) [XL-019], for which the Kd in test [1] was > 30 µM (inactive); in test [2], > 30 µM (inactive); in test [3], 0.353 µM (active); in test [4], > 30 µM (inactive); in test [5], > 30 µM (inactive); in test [6], > 30 µM (inactive).
For the compound `CNC(=O)CN1CCC(Oc2cc3c(Nc4cccc(Cl)c4F)ncnc3cc2OC)CC1` [SAPITINIB], the Kd in test [1], in test [2], in test [3], in test [4], in test [5] and in test [6] was > 30 µM (inactive) throughout.
For the compound `Cc1cc([C@@H](C)Nc2ccccc2C(=O)O)c2nc(N3CCOCC3)cc(=O)n2c1` [AZD-6482], the Kd in test [1], in test [2], in test [3], in test [4], in test [5] and in test [6] was > 30 µM (inactive) in each case.
For `CCN1CCN(Cc2ccc(-c3cc4c(N[C@H](C)c5ccccc5)ncnc4[nH]3)cc2)CC1` [AEE-788], the Kd in test [1] is > 30 µM (inactive); in test [2] it was > 30 µM (inactive); in test [3], 38.1 µM (active); in test [4], > 30 µM (inactive); in test [5], > 30 µM (inactive); in test [6], > 30 µM (inactive).
For the compound `CN1N=C(N)c2cn([C@@H]3O[C@H](COP(=O)(O)O)[C@@H](O)[C@H]3O)c3ncnc1c23` [TRICIRIBINE PHOSPHATE], the Kd in test [1], in test [2], in test [3], in test [4], in test [5] and in test [6] was > 30 µM (inactive) in each case.
Regarding `CC(=O)Nc1cccc(-n2c(=O)n(C3CC3)c(=O)c3c(Nc4ccc(I)cc4F)n(C)c(=O)c(C)c32)c1` [TRAMETINIB], the Kd in test [1], in test [2], in test [3], in test [4], in test [5] and in test [6] was > 30 µM (inactive) in each case.
For the compound `COCCNCc1ccc(-c2cc3nccc(Oc4ccc(NC(=S)NC(=O)Cc5ccc(F)cc5)cc4F)c3s2)nc1` [GLESATINIB], the Kd in test [1], in test [2], in test [3], in test [4], in test [5] and in test [6] was > 30 µM (inactive) in each case.
